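Compound exposure: 48 hours, 5 concentrations, 96-well plates. GI50 is the concentration that inhibits growth by half.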 Calls of active or inactive are those of the source. Rule as the data show it: active = GI50 up to about 1.1 µM and inactive = higher. Peptide text beside a SMILES is read from it. * marks the point of attachment. Boc = CC(C)(C)OC(=O)*
Experiments:
Test in all cases: inhibition of tumour cell growth, NCI panel, 48 h
BT-549 = system: BT-549
Hs-578T = system: Hs-578T
DLD-1 = system: DLD-1
DMS-273 = system: DMS-273
M19-MEL = system: M19-MEL
SNB-78 = system: SNB-78
XF498 = system: XF498
HOP-18 = system: HOP-18

## N=c1c2ccccc2nc2oc3ccc(Cl)cc3n12
BT-549
  GI50: 36.6 µM (inactive)
Hs-578T
  GI50: 2.28 µM (inactive)

## Cc1cccc2c1CC1(Cc3c(C)cccc3C1=O)C2=O
Hs-578T
  GI50: > 100 µM (inactive)

## COC(=O)/C=C\C(C#N)(C#N)/N=C/c1cccs1
BT-549
  GI50: 7.89 µM (inactive)
Hs-578T
  GI50: 24.8 µM (inactive)

## COC(=O)C1=C(\c2ccccc2)c2ccccc2C(=O)N(C2CCCCC2)/C=C\1
BT-549
  GI50: 23.1 µM (inactive)

## FC(F)(F)c1ccc(Cc2nc3cc4ccccc4cc3[nH]2)cc1
BT-549
  GI50: > 100 µM (inactive)
Hs-578T
  GI50: 95.7 µM (inactive)

## CON(C)C(=O)C1CCCO1 (centres undefined)
Hs-578T
  GI50: > 100 µM (inactive)

## NC(=S)N1N=C2CCCCCC[C@@H]2[C@H]1c1ccccc1
DLD-1
  GI50: 56.2 µM (inactive)
DMS-273
  GI50: 34.2 µM (inactive)
M19-MEL
  GI50: 38.5 µM (inactive)
SNB-78
  GI50: > 100 µM (inactive)
XF498
  GI50: 23.9 µM (inactive)

## c1ccc(C2=NCCc3cc4c(cc32)OCO4)cc1
Hs-578T
  GI50: > 100 µM (inactive)

## O=C1C(Cl)=C(NCCOCCO)C(=O)c2c(O)ccc(O)c21
DLD-1
  GI50: 2.13 µM (inactive)
DMS-273
  GI50: 3.89 µM (inactive)
HOP-18
  GI50: 15.6 µM (inactive)
M19-MEL
  GI50: 1.81 µM (inactive)
SNB-78
  GI50: 12.7 µM (inactive)

## C#CCOC(=O)C(N)CC(N)=O (centres undefined)
BT-549
  GI50: > 100 µM (inactive)
Hs-578T
  GI50: > 100 µM (inactive)

## CCCCN(CCCC)C(=O)C(=O)C(C)C(=O)CC (centres undefined)
DLD-1
  GI50: > 100 µM (inactive)
DMS-273
  GI50: > 100 µM (inactive)
SNB-78
  GI50: > 100 µM (inactive)
XF498
  GI50: > 100 µM (inactive)

## O=C1Cc2cn[nH]c2-c2ccccc2N1
BT-549
  GI50: 22.5 µM (inactive)
Hs-578T
  GI50: 37.9 µM (inactive)

## C=CC(Br)(CBr)CCC1OC1(C)C (centres undefined)
BT-549
  GI50: 16.6 µM (inactive)
Hs-578T
  GI50: 15 µM (inactive)

## O=C(Nc1cc(Cl)ccc1Cl)c1cc2cccc(Cl)c2oc1=O
DLD-1
  GI50: > 100 µM (inactive)
DMS-273
  GI50: > 100 µM (inactive)
HOP-18
  GI50: 40.2 µM (inactive)
M19-MEL
  GI50: > 100 µM (inactive)
XF498
  GI50: 24 µM (inactive)

## O=[N+]([O-])c1ccccc1S(=O)(=O)c1cc(O)cc2c1NCCC2
BT-549
  GI50: 13.2 µM (inactive)
Hs-578T
  GI50: 27.4 µM (inactive)

## CC(C)=CCC/C(C)=C/CC/C(C)=C/[C@@H]1[C@@H](CO)[C@]1(C)CC/C=C(\C)CCC=C(C)C
BT-549
  GI50: > 100 µM (inactive)
Hs-578T
  GI50: > 100 µM (inactive)

## CC12c3c4cc(Br)cc3Oc3cc(Br)cc(c31)Oc1cc(Br)cc(c12)O4
BT-549
  GI50: 21.9 µM (inactive)
Hs-578T
  GI50: > 100 µM (inactive)

## O=C(N/C(=C\c1cc(Cl)ccc1Cl)c1nc2cc(Cl)ccc2[nH]1)c1ccccc1
DLD-1
  GI50: 12.8 µM (inactive)
M19-MEL
  GI50: 16 µM (inactive)
SNB-78
  GI50: 21.7 µM (inactive)

## COc1cc2c3c(c1O)-c1c(ccc(OC)c1OC)CC3N(C)CC2 (centres undefined)
BT-549
  GI50: > 100 µM (inactive)
Hs-578T
  GI50: > 100 µM (inactive)

## Cn1ccnc1Sc1ccc(/C=N/NC(=O)c2ccccc2[N+](=O)[O-])cc1[N+](=O)[O-]
BT-549
  GI50: 83.9 µM (inactive)
Hs-578T
  GI50: > 100 µM (inactive)

## COc1ccc(Cc2c(N)[nH]c(=O)[nH]c2=O)cc1
BT-549
  GI50: > 100 µM (inactive)
Hs-578T
  GI50: > 100 µM (inactive)

## O=C(O)C(O)c1ccc(F)cc1 (centres undefined)
BT-549
  GI50: > 100 µM (inactive)
Hs-578T
  GI50: > 100 µM (inactive)

## COc1ccc(COCC[C@H](C)OC2OC(CO[Si](C)(C)C(C)(C)C)C(OC(=O)CCCN=[N+]=[N-])C(OC(=O)CCCN=[N+]=[N-])C2OC(=O)CCCN=[N+]=[N-])cc1 (some centres undefined)
BT-549
  GI50: 22.2 µM (inactive)
Hs-578T
  GI50: > 100 µM (inactive)

## CC1(C)CC(=O)C(=CNC(=S)c2ccccc2)C(=O)C1
BT-549
  GI50: > 100 µM (inactive)
Hs-578T
  GI50: > 100 µM (inactive)

## CCN(CCCl)c1cc(CN(C)C)cc(NC(=O)c2ccc(C(=O)Nc3cccc(N(CCCl)NN)c3)cc2)c1
Hs-578T
  GI50: 0.0186 µM (active)

## C/C(=N\NS(=O)(=O)c1ccc(C)cc1)c1cc2ccccc2n1C
DLD-1
  GI50: > 100 µM (inactive)
DMS-273
  GI50: > 100 µM (inactive)
M19-MEL
  GI50: > 100 µM (inactive)

## CC(=O)Nc1ccc2c3c(cc(O)c2c1)N(C(=O)CCCCC(=O)Nc1ccc2c4c(cc(O)c2c1)N(C(=O)OC(C)(C)C)CC4CCl)CC3CCl (centres undefined)
BT-549
  GI50: 1.77 µM (inactive)
Hs-578T
  GI50: 3.55 µM (inactive)

## O=C(O)C1=Cc2cccc3cccc(c23)C1=O
DLD-1
  GI50: > 100 µM (inactive)
DMS-273
  GI50: > 100 µM (inactive)
HOP-18
  GI50: > 100 µM (inactive)
M19-MEL
  GI50: > 100 µM (inactive)

## OCC(O)COCn1cc(Cn2ncc3c(NCc4ccccc4)ncnc32)nn1 (centres undefined)
BT-549
  GI50: > 100 µM (inactive)
Hs-578T
  GI50: 25 µM (inactive)

## C[C@H](CCC(=O)O)[C@H]1CC[C@H]2[C@@H]3[C@@H](O)C[C@@H]4C[C@H](O)CC[C@]4(C)[C@H]3CC[C@]12C
BT-549
  GI50: 38.8 µM (inactive)
Hs-578T
  GI50: 59.8 µM (inactive)

## COc1ccc(/C=C2\CCCc3ccccc3C2=O)cc1
BT-549
  GI50: 0.143 µM (active)
Hs-578T
  GI50: 0.233 µM (active)

## CC1=NN(C(=O)c2ccccc2O)C(=O)/C1=C/c1cccc(O)c1
BT-549
  GI50: 0.392 µM (active)
DLD-1
  GI50: 0.167 µM (active)
M19-MEL
  GI50: 0.596 µM (active)
SNB-78
  GI50: 0.276 µM (active)
XF498
  GI50: 0.783 µM (active)

## CC(NC(=O)OC(C)(C)C)C(=O)NC(Cc1ccccc1)C(=O)NCC(=O)O (stereo not drawn) (Boc-Ala-Phe-Gly-OH; configuration not given here)
BT-549
  GI50: > 100 µM (inactive)
Hs-578T
  GI50: > 100 µM (inactive)

## CCOC(C)C(/C=N/NC(N)=S)=NNC(N)=S (centres undefined) [GLOXAZONE]
DLD-1
  GI50: > 100 µM (inactive)
M19-MEL
  GI50: > 100 µM (inactive)
SNB-78
  GI50: 53.7 µM (inactive)

## C/C(=C\c1csc(C)n1)[C@@H]1C[C@@H]2O[C@]2(C)CCC[C@H](C)[C@H](O)[C@@H](C)C(=O)C(C)(C)[C@@H](O)CC(=O)O1 [PATUPILONE]
BT-549
  GI50: < 0.0001 µM (active)
Hs-578T
  GI50: < 0.0001 µM (active)

Reference: ChEMBL document CHEMBL1201862, “PubChem BioAssay data set” (2004)
